These results are taken from publication PMC10889811, “Potential Candidate Molecule of Photosystem II Inhibitor Herbicide—Brassicanate A Sulfoxide” (International Journal of Molecular Sciences, 2024).

In the assay the target is T1, photosystem II D1 protein (PSBD1; psbA).
T1 construct: gene psbA1; psbA cloned BamHI/HindIII into pFastBac1; expressed in Sf9 insect cells; His-tagged (kept, captured on NTA sensor), Ni column from sonicated pellet supernatant; recombinant plasmid printed as 5238 bp, small for a full-length psbA insert; isolated D1 without other PSII subunits or cofactors; PDB 7ZCL is the docking model only
Put plainly: biolayer interferometry (Octet R8, NTA sensor). The class given is binding. To be noted: PBS, 5% DMSO; analyte 1 mM; His-tagged protein immobilised on NTA sensor; read-out: affinity constant. (Biolayer interferometry detects binding as a change in optical thickness at a sensor tip.)

`COC(=O)c1c([S+](C)[O-])[nH]c2ccccc12` (stereo not shown) [brassicanate A sulfoxide]: the Kd was determined as 2690 µM.
